Source: ChEMBL document CHEMBL5030556, “Selection and Identification of Novel Antibacterial Agents against Planktonic Growth and Biofilm Formation of Enterococcus faecalis” (J Med Chem, 2021)
Values after ≈ are worked out from the molar mass of the structure shown. Active and inactive are the calls of the source. The calls are words filed in the database; no cut-off is given here.

Legend:
Escherichia coli = assay: Antibacterial activity against Escherichia coli […] assessed as reduction in visible bacterial growth incubated for 16 to 20 hrs by microdilution broth assay; type: functional; conditions: time 16-20 hrs
Enterococcus faecalis [1] = assay: Inhibition of biofilm formation of Enterococcus faecalis FB-1 assessed as inhibitory rate of formation at 100 uM for 24 hrs measured at 570 nm by crystal violet staining based spectrophotometry; type: functional
Enterococcus faecalis [2] = assay: Antibacterial activity against clinical strain linozelid-resistant Enterococcus faecalis assessed as inhibition of bacterial growth; type: functional
Enterococcus faecalis [3] = assay: Antimicrobial activity against Enterococcus faecalis OG1RF assessed as reduction in visible bacterial growth incubated for 16 to 20 hrs by microdilution broth assay; type: functional; conditions: time 16-20 hrs
Enterococcus faecalis [4] = assay: Antibiofilm activity against Enterococcus faecalis assessed as fold reduction in yycG gene expression at 25 uM incubated for 6 hrs by qRT-PCR analysis; type: functional
Enterococcus faecalis [5] = assay: Bactericidal activity against Enterococcus faecalis OG1RF assessed as reductions in colony forming unit in presence of linezolid after 24 hrs by time-killing assay; type: functional, organism-based
Enterococcus faecalis [6] = assay: Antibacterial activity against Enterococcus faecalis OG1RF assessed as reduction in visible bacterial growth incubated for 16 to 20 hrs by microdilution broth assay; type: functional; conditions: time 16-20 hrs
Enterococcus faecium = assay: Antibacterial activity against Enterococcus faecium EF16M64 assessed as reduction in visible bacterial growth incubated for 16 to 20 hrs by microdilution broth assay; type: functional; conditions: time 16-20 hrs
Staphylococcus aureus [7] = assay: Antibacterial activity against Staphylococcus aureus ATCC 29213 assessed as reduction in visible bacterial growth incubated for 16 to 20 hrs by microdilution broth assay; type: functional; conditions: time 16-20 hrs
Enterococcus faecalis [8] = assay: Bactericidal activity against Enterococcus faecalis OG1RF assessed as reductions in colony forming unit in presence of ampicillin after 24 hrs by time-killing assay; type: functional, organism-based
[9] = tested on: Staphylococcus epidermidis; assay: Antibacterial activity against Staphylococcus epidermidis ATCC 35984 assessed as reduction in visible bacterial growth incubated for 16 to 20 hrs by microdilution broth assay; type: functional; conditions: time 16-20 hrs
Enterococcus faecalis [10] = assay: Bactericidal activity against Enterococcus faecalis OG1RF assessed as reductions in colony forming unit in presence of ampicillin within 3 hrs by time-killing assay; type: functional, organism-based
[11] = Inhibition of Enterococcus faecalis OG1RF YycG autophosphorylation by Kinase-Glo luminescent kinase assay
Enterococcus faecalis [12] = assay: Antibiofilm activity against Enterococcus faecalis assessed as fold reduction in gelE gene expression at 25 uM incubated for 6 hrs by qRT-PCR analysis; type: functional
Streptococcus agalactiae = assay: Antibacterial activity against Streptococcus agalactiae NSGC64 assessed as reduction in visible bacterial growth incubated for 16 to 20 hrs by microdilution broth assay; type: functional; conditions: time 16-20 hrs
Enterococcus faecalis [13] = assay: Antibacterial activity against ATc induced Enterococcus faecalis OG1RF-asryycG silencing strain assessed as fold reduction in MIC relative to wild type; type: functional
Enterococcus faecalis [14] = assay: Antibiofilm activity against Enterococcus faecalis assessed as fold reduction in epbOX gene expression at 25 uM incubated for 6 hrs by qRT-PCR analysis; type: functional
Enterococcus faecalis [15] = assay: Antibiofilm activity against Enterococcus faecalis assessed as fold reduction in […] gene expression at 25 uM incubated for 6 hrs by qRT-PCR analysis; type: functional
Enterococcus faecalis [16] = assay: Antibiofilm activity against Enterococcus faecalis FB-1 assessed as inhibition of biofilm maturation measured after 24 hr; type: functional, organism-based
Enterococcus faecalis [17] = assay: Antibiofilm activity against Enterococcus faecalis assessed as reduction in amount of viable biofilm-embedded bacterial cells at 50 uM measured by YTO 9/PI staining followed by confocal laser scanning microscopy; type: functional
Enterococcus faecalis [18] = assay: Binding affinity to Enterococcus faecalis FB-1 YycG assessed as slow association and rapid dissociation measured by Octet RED96 response assay
[19] = Cytotoxicity against african green monkey Vero cells assessed as inhibition of cell growth by MTT assay; type: cell-based; conditions: chlorocebus sabaeus
Enterococcus faecalis [20] = assay: Antibiofilm activity against Enterococcus faecalis assessed as fold reduction in fsrB gene expression at 25 uM incubated for 6 hrs by qRT-PCR analysis; type: functional
Enterococcus faecalis [21] = assay: Bactericidal activity against Enterococcus faecalis OG1RF assessed as reduction in bacterial colonies incubated for 16 to 20 hrs by microdilution broth analysis; type: functional; conditions: time 16-20 hrs, read-out: MBC99.9
Staphylococcus aureus [22] = assay: Antibacterial activity against Staphylococcus aureus ATCC 35556 assessed as reduction in visible bacterial growth incubated for 16 to 20 hrs by microdilution broth assay; type: functional; conditions: time 16-20 hrs
Enterococcus faecalis [23] = assay: Antibiofilm activity against Enterococcus faecalis assessed as fold reduction in yycF gene expression at 25 uM incubated for 6 hrs by qRT-PCR analysis; type: functional
Enterococcus faecalis [24] = assay: Bactericidal activity against Enterococcus faecalis OG1RF assessed as reductions in colony forming unit in presence of vancomycin within 3 hrs by time-killing assay; type: functional, organism-based
Enterococcus faecalis [25] = assay: Effect on initial adhesion capacity of Enterococcus faecalis assessed as attached cells at 25 uM for 6 hrs by crystal violet staining based microscopic assay (reference value: 0.412); type: functional
Enterococcus faecalis [26] = assay: Antibacterial activity against clinical strain vancomycin-resistant Enterococcus faecalis assessed as inhibition of bacterial growth; type: functional
Enterococcus faecalis [27] = assay: Antibacterial activity against Enterococcus faecalis FB-1 assessed as reduction in visible bacterial growth incubated for 16 to 20 hrs by microdilution broth assay; type: functional; conditions: time 16-20 hrs
Enterococcus faecalis [28] = assay: Antibacterial activity against Enterococcus faecalis ATCC 29212 assessed as reduction in visible bacterial growth incubated for 16 to 20 hrs by microdilution broth assay; type: functional; conditions: time 16-20 hrs
[29] = tested on: Staphylococcus epidermidis; assay: Antibacterial activity against Staphylococcus epidermidis ATCC 12228 assessed as reduction in visible bacterial growth incubated for 16 to 20 hrs by microdilution broth assay; type: functional; conditions: time 16-20 hrs
Enterococcus faecalis [30] = assay: Antibacterial activity against clinical strain Enterococcus faecalis assessed as inhibition of bacterial growth; type: functional
Enterococcus faecalis [31] = assay: Bactericidal activity against Enterococcus faecalis OG1RF assessed as reductions in colony forming unit in presence of vancomycin after 24 hrs by time-killing assay; type: functional, organism-based
Enterococcus faecalis [32] = assay: Antibiofilm activity against Enterococcus faecalis assessed as fold reduction in sprE gene expression at 25 uM incubated for 6 hrs by qRT-PCR analysis; type: functional
Enterococcus faecalis [33] = assay: Antibiofilm activity against Enterococcus faecalis FB-1 assessed as eradication of mature biofilm by semiquantitative microtiter assay; type: functional, organism-based
Enterococcus faecalis [34] = assay: Bactericidal activity against Enterococcus faecalis OG1RF assessed as reductions in colony forming unit in presence of linezolid within 3 hrs by time-killing assay; type: functional, organism-based
[35] = Hemolytic activity against human erythrocytes at 200 uM incubated for 1 hr at 570 nm by spectrophotometry; type: ADME, tissue-based, Erythrocyte; conditions: read-out: Activity
[36] = Hemolytic activity against human erythrocytes at 50 uM incubated for 1 hr at 570 nm by spectrophotometry; type: ADME, tissue-based, Erythrocyte; conditions: read-out: Activity
Enterococcus faecalis [37] = assay: Antibiofilm activity against Enterococcus faecalis assessed as inhibition of biofilm at 1/2 times of MIC incubated for 24 hrs; type: functional; set-up: scale not given: the % may be the effect or the level left
Enterococcus faecalis [38] = assay: Antibiofilm activity against Enterococcus faecalis FB-1 assessed as inhibition of biofilm infection at 25 uM by fluid shear system; type: functional, organism-based
Enterococcus faecalis [39] = assay: Bacteriostatic activity against planktonic cells of Enterococcus faecalis OG1RF measured by microdilution broth assay; type: functional, organism-based
Enterococcus faecalis [40] = assay: Antibiofilm activity against Enterococcus faecalis FB-1 assessed as inhibition of biofilm maturation at 1.56 uM measured after 24 hr; type: functional, organism-based

## CCOC(=O)c1c(CN2CCN(C)CC2)n(-c2ccccc2)c2ccc(OS(=O)(=O)c3ccc(C)cc3)cc12
Escherichia coli
  MIC: > 200 µM
Enterococcus faecalis [1]
  inhibition at 100 µM: 96.2%
Enterococcus faecalis [2]
  MIC90: 100 µM (≈ 54.8 µg/mL)
Enterococcus faecalis [3]
  MIC: 25 µM (≈ 13.7 µg/mL)
Enterococcus faecalis [4]
  fold change (FC): 20
Enterococcus faecalis [5]
  Activity: Active
Enterococcus faecalis [6]
  MIC: 25 µM (≈ 13.7 µg/mL)
Enterococcus faecium
  MIC: 25 µM (≈ 13.7 µg/mL)
Staphylococcus aureus [7]
  MIC: 12.5 µM (≈ 6.85 µg/mL)
Enterococcus faecalis [8]
  Activity: Active
[9]
  MIC: 12.5 µM (≈ 6.85 µg/mL)
Enterococcus faecalis [10]
  Activity: Active
[11]
  IC50: 42.9 µM
Enterococcus faecalis [12]
  fold change (FC): 2
Streptococcus agalactiae
  MIC: 12.5 µM (≈ 6.85 µg/mL)
Enterococcus faecalis [13]
  fold change (FC): 4
Enterococcus faecalis [14]
  fold change (FC): 2
Enterococcus faecalis [15]
  fold change (FC): 2
Enterococcus faecalis [16]
  Activity: Dose-Dependent Effect
Enterococcus faecalis [17]
  Activity: 18.29%
Enterococcus faecalis [18]
  Activity: Active
[19]
  CC50: > 200 µM
Enterococcus faecalis [20]
  fold change (FC): 2
Enterococcus faecalis [21]
  MBC: 100 µM (≈ 54.8 µg/mL)
Staphylococcus aureus [22]
  MIC: 12.5 µM (≈ 6.85 µg/mL)
Enterococcus faecalis [23]
  fold change (FC): 3
Enterococcus faecalis [24]
  Activity: Active
Enterococcus faecalis [25]
  OD: 0.186
Enterococcus faecalis [26]
  MIC50: 50 µM (≈ 27.4 µg/mL)
Enterococcus faecalis [27]
  MIC: 50 µM (≈ 27.4 µg/mL)
Enterococcus faecalis [28]
  MIC: 25 µM (≈ 13.7 µg/mL)
[29]
  MIC: 12.5 µM (≈ 6.85 µg/mL)
Enterococcus faecalis [30]
  MIC: 25 µM (≈ 13.7 µg/mL)
Enterococcus faecalis [31]
  Activity: Active
Enterococcus faecalis [32]
  fold change (FC): 2
Enterococcus faecalis [33]
  Activity: inactive
Enterococcus faecalis [34]
  Activity: Active
[35]
  hemolysis at 1 h, 200 µM: 28.2%
[36]
  hemolysis at 1 h, 50 µM: 24.1%
Enterococcus faecalis [37]
  Activity: 74.8%
Enterococcus faecalis [38]
  Activity: Active

## O=C(C1=C(O)C(=O)N(c2nnc(SCc3ccc(Cl)cc3)s2)C1c1cccc(O)c1)c1cc2ccccc2o1 (stereo not drawn)
Enterococcus faecalis [1]
  inhibition at 100 µM: 72%
Enterococcus faecalis [3]
  MIC: > 200 µM
[11]
  IC50: 8.3 µM
Enterococcus faecalis [16]
  Activity: Dose-Dependent Effect
Enterococcus faecalis [17]
  Activity: 27.79%
[19]
  CC50: > 200 µM
Enterococcus faecalis [21]
  MBC: > 200 µM
Enterococcus faecalis [39]
  Activity: inactive
[35]
  hemolysis at 1 h, 200 µM: 7.81%
[36]
  hemolysis at 1 h, 50 µM: 6.26%

## Cc1ccc(CSc2nnc(N3C(=O)C(O)=C(C(=O)c4cc5ccccc5o4)C3c3cccc(O)c3)s2)cc1 (stereo not drawn)
Enterococcus faecalis [1]
  inhibition at 100 µM: 77.7%
Enterococcus faecalis [3]
  MIC: > 200 µM
[11]
  IC50: 1.5 µM
Enterococcus faecalis [16]
  Activity: Dose-Dependent Effect
Enterococcus faecalis [17]
  Activity: 46.93%
[19]
  CC50: > 200 µM
Enterococcus faecalis [21]
  MBC: > 200 µM
Enterococcus faecalis [40]
  Activity: Active
Enterococcus faecalis [39]
  Activity: inactive
[35]
  hemolysis at 1 h, 200 µM: 6.32%
[36]
  hemolysis at 1 h, 50 µM: 4.7%

## O=C(O)COc1ccc(/C=C2/SC(=O)N(Cc3ccc(F)cc3)C2=O)cc1Br
Escherichia coli
  MIC: > 200 µM
Enterococcus faecalis [1]
  inhibition at 100 µM: 83.5%
Enterococcus faecalis [3]
  MIC: > 200 µM
Enterococcus faecalis [6]
  MIC: > 200 µM
Enterococcus faecium
  MIC: > 200 µM
Staphylococcus aureus [7]
  MIC: > 200 µM
[9]
  MIC: > 200 µM
[11]
  IC50: 27.4 µM
Streptococcus agalactiae
  MIC: > 200 µM
Enterococcus faecalis [16]
  Activity: Dose-Dependent Effect
[19]
  CC50: > 200 µM
Enterococcus faecalis [21]
  MBC: > 200 µM
Staphylococcus aureus [22]
  MIC: > 200 µM
Enterococcus faecalis [27]
  MIC: > 200 µM
Enterococcus faecalis [28]
  MIC: > 200 µM
Enterococcus faecalis [39]
  Activity: inactive
[29]
  MIC: > 200 µM
Enterococcus faecalis [33]
  Activity: inactive
[35]
  hemolysis at 1 h, 200 µM: 22.7%
[36]
  hemolysis at 1 h, 50 µM: 8.36%
Enterococcus faecalis [38]
  Activity: Active
